# Measured values reported in ChEMBL document CHEMBL1201862, “PubChem BioAssay data set” (2004).
# Activity calls are given as the source filed them.
# Tests used:
# Exodeoxyribonuclease V = Exodeoxyribonuclease V (Escherichia coli (strain K12), UniProt P04993+P07648+P08394); experiment: E. coli RecBCD inhibitors, dose response, counter-screen for AddAB inhibitor project, absorbance, V66 E. coli, mutant T4 phage (AID 492957); assay type: functional, cell-based, Escherichia coli str. K-12 substr. MG1655
# [1] = Counterscreen for AddAB inhibitors: absorbance-based bacterial cell-based high throughput dose response assay for inhibitors of bacterial viability. [Related pubchem assays (depositor defined):AID435030, AID449728, AID449731, AID488942, AID488955, AID488956]; assay type: functional
# [2] = NIH-3T3 fibroblast cytotoxicity, dose response, cytotoxicity control, cell-based, fluorescence, Alamar Blue, secondary assay (AID 2327); assay type: functional;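 also: NIH-3T3 mouse fibroblasts cultured with fluconazole at 8 µg/mL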
# [3] = C. albicans growth with fluconazole, confirmation, fluorescence, retest (AID 2467); assay type: functional, cell-based
# [4] = target: Lysine-specific demethylase 4C (Homo sapiens, UniProt Q9H3R0); experiment: GASC-1 (JMJD2C) histone demethylase inhibitors, dose response, biochemical, DELFIA europium, cherry-picked samples (AID 488835); assay type: functional
# [5] = Luminescence Cell-Based Dose Response HTS to Identify Inhibitors of 5'UTR Stem-Loop Driven Prion Protein mRNA Translation in H4 Neuroglioblastoma Cells. [Related pubchem assays: 1827 (Project Summary), 1813 (Primary HTS)]; assay type: functional
# [6] = inhibitors of firefly luciferase expression or activity, dose response, H4 neuroglioma cells, luminescence (AID 1990); assay type: functional, cell-based
# [7] = growth induction of Burl-1 ts yeast mutant, dose response, counter-screen for SUMOylation pathway inhibitor project, whole organism, S. cerevisiae, luminescence (AID 463199); assay type: functional
# [8] = inhibitors of SNCA 5'UTR-driven translation, confirmation, luminescence, H4 neuroglioblastoma cells, dose confirmation (AID 2454); assay type: functional, cell-based;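 also: H4 neuroglioblastoma cells carrying an alpha-synuclein 5'UTR luciferase reporter; potency for inhibition of the luciferase signal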
# [9] = inhibitors of SNCA 5'UTR-driven reporter translation, confirmation, H4 neuroglioma cells, luminescence (AID 1988); assay type: functional, cell-based
# [10] = luciferase reporter signal reduction – luminescence, H4-C neuroglioblastoma cells, dose response (AID 2458); assay type: functional, cell-based;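 also: H4 neuroglioblastoma cells stably carrying a luciferase reporter gene fusion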
# cells = assay type: functional, cell-based
# [11] = target: Intestinal-type alkaline phosphatase (Homo sapiens, UniProt P09923); experiment: activation of human intestinal alkaline phosphatase – biochemical, dose response (AID 488873); assay type: functional
# Phospholipase A2 = Phospholipase A2 (Homo sapiens, UniProt P04054); assay type: functional;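 also: confirmatory dose-response counterscreen on phospholipase A2, testing hits that came from an ultra-high-throughput screen for ATG4B inhibitors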
# Cysteine protease ATG4B = target: T1, Cysteine protease ATG4B (Homo sapiens, UniProt Q9Y4P1); assay type: functional;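 also: Fluorescence-based dose-response confirmation assay measuring inhibition of ATG4B activity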
# T1 sequence (Q9Y4P1 whole entry): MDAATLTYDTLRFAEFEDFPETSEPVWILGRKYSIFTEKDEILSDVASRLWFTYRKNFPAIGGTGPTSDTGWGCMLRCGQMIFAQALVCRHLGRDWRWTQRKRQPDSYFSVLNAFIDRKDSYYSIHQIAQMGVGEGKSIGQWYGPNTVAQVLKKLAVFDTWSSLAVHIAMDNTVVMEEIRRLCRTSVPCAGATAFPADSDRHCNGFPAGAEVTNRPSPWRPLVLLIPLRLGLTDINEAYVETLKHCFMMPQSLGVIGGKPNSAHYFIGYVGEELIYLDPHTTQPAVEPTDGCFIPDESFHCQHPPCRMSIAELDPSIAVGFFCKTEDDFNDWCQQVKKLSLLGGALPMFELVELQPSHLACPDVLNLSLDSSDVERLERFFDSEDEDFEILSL
# Large T antigen = Large T antigen (Simian virus 40, UniProt P03070); assay type: functional, Betapolyomavirus macacae;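 also: Confirmatory-stage PubChem screen for compounds that inhibit SV40 T antigen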
# [12] = target: T2, Alkaline phosphatase, tissue-nonspecific isozyme (Homo sapiens, UniProt P05186); experiment: TNAP enzyme activators, dose response, selectivity assay for mouse IAP activator project, biochemical, TNAP isozyme, mouse IAP uHTS hits (AID 488880); assay type: functional
# T2 sequence (P05186 whole entry): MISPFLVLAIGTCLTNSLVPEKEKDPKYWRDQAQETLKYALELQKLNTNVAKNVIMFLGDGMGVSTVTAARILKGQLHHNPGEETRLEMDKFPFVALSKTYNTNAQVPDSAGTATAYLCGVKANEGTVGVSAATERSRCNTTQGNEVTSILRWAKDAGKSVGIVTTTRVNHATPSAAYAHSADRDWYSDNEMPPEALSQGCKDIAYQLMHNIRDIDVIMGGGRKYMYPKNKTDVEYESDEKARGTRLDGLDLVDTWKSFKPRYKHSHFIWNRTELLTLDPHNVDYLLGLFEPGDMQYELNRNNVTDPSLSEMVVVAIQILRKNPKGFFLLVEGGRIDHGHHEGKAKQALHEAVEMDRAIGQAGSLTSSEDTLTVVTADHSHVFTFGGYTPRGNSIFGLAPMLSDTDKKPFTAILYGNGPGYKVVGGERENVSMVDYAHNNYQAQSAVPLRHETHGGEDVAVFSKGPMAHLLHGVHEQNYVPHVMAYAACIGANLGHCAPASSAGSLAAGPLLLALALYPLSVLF
# ORF 73 = ORF 73 (Human herpesvirus 8, UniProt O40947); experiment: inhibitors of C-LANA binding to LBS DNA, dose response, biochemical, fluorescence polarization, cherry-picked samples (AID 504725); design: species or system Human gammaherpesvirus 8;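 also: fluorescence polarization of a labeled DNA duplex reporting LANA DNA binding; potency is for inhibitors that block LANA binding to the DNA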
# Genome polyprotein = Genome polyprotein (dengue virus type 2, UniProt P29990); experiment: Dengue-2 NS5 methyltransferase inhibitors, primary screen, biochemical, confirmation dose response (AID 588689); assay type: functional
# [13] = target: 72 kDa type IV collagenase (Homo sapiens, UniProt P08253); experiment: Dose Response validation of uHTS RPN11 inhibitor hits using a MMP-2 Fluorescence assay.; assay type: functional
# [14] = target: Intestinal-type alkaline phosphatase (Mus musculus, UniProt P24822); experiment: mouse intestinal alkaline phosphatase activators, dose response, biochemical, luminescence, uHTS hits (AID 488783); assay type: functional
# Vero = Vero cell cytotoxicity, cytotoxicity control for flavivirus capping enzyme inhibitors (AID 588742); assay type: functional; settings: Chlorocebus sabaeus
# [15] = target: 26S proteasome non-ATPase regulatory subunit 14 (Homo sapiens, UniProt O00487); experiment: inhibition of proteasome subunit RPN11 – biochemical, fluorescence polarization, uHTS hits, confirmation (AID 602368); assay type: functional
# Prothrombin = Prothrombin (Bos taurus, UniProt P00735); experiment: thrombin inhibition, dose response, biochemical, fluorescence polarization, uHTS hits (AID 602369); assay type: functional
# [16] = target: G-protein coupled receptor 55 (Homo sapiens, UniProt Q9Y2T6); experiment: GPR55 antagonists, SAR follow-up, counter-screen for GPR35 antagonist project, imaging, image-based (AID 2397); assay type: functional
# Tumor necrosis factor = Tumor necrosis factor (Homo sapiens, UniProt P01375); experiment: TNFa-triggered NF-kB activation inhibitors, SAR follow-up, cell-based, set 3 (AID 2801); assay type: functional
# [17] = target: T3, Nucleotide-binding oligomerization domain-containing protein 1 (Homo sapiens, UniProt Q9Y239); experiment: SAR analysis of compounds that inhibit NOD1 - Set 3. [Related pubchem assays (depositor defined):AID1566, AID1575, AID1578, AID1849, AID1852, AID2333, AID2335, AID2466]; assay type: functional
# T3 sequence (Q9Y239 whole entry): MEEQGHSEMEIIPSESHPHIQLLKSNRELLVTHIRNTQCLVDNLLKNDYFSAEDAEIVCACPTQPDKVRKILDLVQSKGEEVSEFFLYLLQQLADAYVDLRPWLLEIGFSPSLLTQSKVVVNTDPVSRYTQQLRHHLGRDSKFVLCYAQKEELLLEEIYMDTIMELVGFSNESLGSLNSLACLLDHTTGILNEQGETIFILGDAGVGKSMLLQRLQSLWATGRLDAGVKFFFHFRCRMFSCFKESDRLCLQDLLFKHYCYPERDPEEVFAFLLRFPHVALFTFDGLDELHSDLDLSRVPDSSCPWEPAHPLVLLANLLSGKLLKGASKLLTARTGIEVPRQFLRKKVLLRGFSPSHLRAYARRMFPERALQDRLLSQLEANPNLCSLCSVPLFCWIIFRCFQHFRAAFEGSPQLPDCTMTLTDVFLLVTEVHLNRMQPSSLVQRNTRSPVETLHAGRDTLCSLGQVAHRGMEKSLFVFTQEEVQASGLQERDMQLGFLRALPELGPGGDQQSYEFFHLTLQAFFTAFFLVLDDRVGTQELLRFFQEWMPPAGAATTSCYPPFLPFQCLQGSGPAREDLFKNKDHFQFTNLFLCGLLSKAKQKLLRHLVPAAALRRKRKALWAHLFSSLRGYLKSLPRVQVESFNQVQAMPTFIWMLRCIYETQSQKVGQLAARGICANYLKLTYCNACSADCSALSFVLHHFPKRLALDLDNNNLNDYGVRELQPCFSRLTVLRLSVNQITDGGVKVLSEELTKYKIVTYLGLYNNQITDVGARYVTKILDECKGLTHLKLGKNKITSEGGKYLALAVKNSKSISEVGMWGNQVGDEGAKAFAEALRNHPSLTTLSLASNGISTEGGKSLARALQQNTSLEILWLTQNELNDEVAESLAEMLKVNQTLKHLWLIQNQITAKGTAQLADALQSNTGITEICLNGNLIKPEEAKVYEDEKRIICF
# HEK293 [18] = experiment: SAR analysis of compounds that are cytotoxic to HEK293 - Set 3. [Related pubchem assays (depositor defined):AID1575, AID1578, AID1848, AID1849, AID2001, AID2333, AID2334, AID2335, AID2337, AID2469]; assay type: functional, cell-based; settings: Homo sapiens
# [19] = target: Nucleotide-binding oligomerization domain-containing protein 2 (Homo sapiens, UniProt Q9HC29); experiment: NOD2 signaling inhibitors, analog potency, SAR follow-up, cell-based, set 3 (AID 2799); assay type: functional
# HEK293 [20] = experiment: SAR Analysis of small molecule inhibitors of B-cell specific antigen receptor-induced NF-kB activation in a HEK-293T cell line using a luminescence assay - Set 2. [Related pubchem assays (depositor defined):AID435022, AID435025, AID489021]; assay type: functional, cell-based; settings: Homo sapiens
# HEK293 [21] = experiment: cytotoxicity in HEK293T NF-kB-Luc cells, SAR follow-up, cytotoxicity control for NF-kB activator project, cell-based, resazurin fluorescence (AID 493251); assay type: functional; settings: Homo sapiens
# Jurkat = experiment: SAR Analysis of small molecule inhibitors of […] specific antigen receptor-induced NF-kB activation in a Jurkat cell line using a luminescence assay - Set 3. [Related pubchem assays (depositor defined):AID435022, AID435025, AID465]; assay type: functional, cell-based; settings: Homo sapiens
# [22] = inhibitors of cytokine-induced nitrite release, dose response, cell-based, Griess absorbance, INS-1E, dry powder, set 3 (AID 488870); assay type: functional; settings: Rattus norvegicus
# Cytochrome P450 2D6 = Cytochrome P450 2D6 (Homo sapiens, UniProt P10635);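 also: CYP2D6 member of a cytochrome P450 panel assay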
# Fatty acid synthase [23] = target: T4, Fatty acid synthase (Homo sapiens, UniProt P49327); experiment: FAS thioesterase domain inhibitors, dose response, biochemical, kinetic fluorescence intensity (AID 624326); assay type: functional;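 also: rate of fluorescence rise from hydrolysis of a fluorogenic O-methyl fluorescein ester substrate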
# Fatty acid synthase [24] = target: T4, Fatty acid synthase; experiment: FAS thioesterase domain inhibitors, dose response, biochemical, endpoint fluorescence intensity, uHTS hits (AID 624327); assay type: functional;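 also: fluorescence from hydrolysis of an O-methyl fluorescein acyl ester substrate by the enzyme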
# T4 sequence (P49327 whole entry, the tested form may be a part): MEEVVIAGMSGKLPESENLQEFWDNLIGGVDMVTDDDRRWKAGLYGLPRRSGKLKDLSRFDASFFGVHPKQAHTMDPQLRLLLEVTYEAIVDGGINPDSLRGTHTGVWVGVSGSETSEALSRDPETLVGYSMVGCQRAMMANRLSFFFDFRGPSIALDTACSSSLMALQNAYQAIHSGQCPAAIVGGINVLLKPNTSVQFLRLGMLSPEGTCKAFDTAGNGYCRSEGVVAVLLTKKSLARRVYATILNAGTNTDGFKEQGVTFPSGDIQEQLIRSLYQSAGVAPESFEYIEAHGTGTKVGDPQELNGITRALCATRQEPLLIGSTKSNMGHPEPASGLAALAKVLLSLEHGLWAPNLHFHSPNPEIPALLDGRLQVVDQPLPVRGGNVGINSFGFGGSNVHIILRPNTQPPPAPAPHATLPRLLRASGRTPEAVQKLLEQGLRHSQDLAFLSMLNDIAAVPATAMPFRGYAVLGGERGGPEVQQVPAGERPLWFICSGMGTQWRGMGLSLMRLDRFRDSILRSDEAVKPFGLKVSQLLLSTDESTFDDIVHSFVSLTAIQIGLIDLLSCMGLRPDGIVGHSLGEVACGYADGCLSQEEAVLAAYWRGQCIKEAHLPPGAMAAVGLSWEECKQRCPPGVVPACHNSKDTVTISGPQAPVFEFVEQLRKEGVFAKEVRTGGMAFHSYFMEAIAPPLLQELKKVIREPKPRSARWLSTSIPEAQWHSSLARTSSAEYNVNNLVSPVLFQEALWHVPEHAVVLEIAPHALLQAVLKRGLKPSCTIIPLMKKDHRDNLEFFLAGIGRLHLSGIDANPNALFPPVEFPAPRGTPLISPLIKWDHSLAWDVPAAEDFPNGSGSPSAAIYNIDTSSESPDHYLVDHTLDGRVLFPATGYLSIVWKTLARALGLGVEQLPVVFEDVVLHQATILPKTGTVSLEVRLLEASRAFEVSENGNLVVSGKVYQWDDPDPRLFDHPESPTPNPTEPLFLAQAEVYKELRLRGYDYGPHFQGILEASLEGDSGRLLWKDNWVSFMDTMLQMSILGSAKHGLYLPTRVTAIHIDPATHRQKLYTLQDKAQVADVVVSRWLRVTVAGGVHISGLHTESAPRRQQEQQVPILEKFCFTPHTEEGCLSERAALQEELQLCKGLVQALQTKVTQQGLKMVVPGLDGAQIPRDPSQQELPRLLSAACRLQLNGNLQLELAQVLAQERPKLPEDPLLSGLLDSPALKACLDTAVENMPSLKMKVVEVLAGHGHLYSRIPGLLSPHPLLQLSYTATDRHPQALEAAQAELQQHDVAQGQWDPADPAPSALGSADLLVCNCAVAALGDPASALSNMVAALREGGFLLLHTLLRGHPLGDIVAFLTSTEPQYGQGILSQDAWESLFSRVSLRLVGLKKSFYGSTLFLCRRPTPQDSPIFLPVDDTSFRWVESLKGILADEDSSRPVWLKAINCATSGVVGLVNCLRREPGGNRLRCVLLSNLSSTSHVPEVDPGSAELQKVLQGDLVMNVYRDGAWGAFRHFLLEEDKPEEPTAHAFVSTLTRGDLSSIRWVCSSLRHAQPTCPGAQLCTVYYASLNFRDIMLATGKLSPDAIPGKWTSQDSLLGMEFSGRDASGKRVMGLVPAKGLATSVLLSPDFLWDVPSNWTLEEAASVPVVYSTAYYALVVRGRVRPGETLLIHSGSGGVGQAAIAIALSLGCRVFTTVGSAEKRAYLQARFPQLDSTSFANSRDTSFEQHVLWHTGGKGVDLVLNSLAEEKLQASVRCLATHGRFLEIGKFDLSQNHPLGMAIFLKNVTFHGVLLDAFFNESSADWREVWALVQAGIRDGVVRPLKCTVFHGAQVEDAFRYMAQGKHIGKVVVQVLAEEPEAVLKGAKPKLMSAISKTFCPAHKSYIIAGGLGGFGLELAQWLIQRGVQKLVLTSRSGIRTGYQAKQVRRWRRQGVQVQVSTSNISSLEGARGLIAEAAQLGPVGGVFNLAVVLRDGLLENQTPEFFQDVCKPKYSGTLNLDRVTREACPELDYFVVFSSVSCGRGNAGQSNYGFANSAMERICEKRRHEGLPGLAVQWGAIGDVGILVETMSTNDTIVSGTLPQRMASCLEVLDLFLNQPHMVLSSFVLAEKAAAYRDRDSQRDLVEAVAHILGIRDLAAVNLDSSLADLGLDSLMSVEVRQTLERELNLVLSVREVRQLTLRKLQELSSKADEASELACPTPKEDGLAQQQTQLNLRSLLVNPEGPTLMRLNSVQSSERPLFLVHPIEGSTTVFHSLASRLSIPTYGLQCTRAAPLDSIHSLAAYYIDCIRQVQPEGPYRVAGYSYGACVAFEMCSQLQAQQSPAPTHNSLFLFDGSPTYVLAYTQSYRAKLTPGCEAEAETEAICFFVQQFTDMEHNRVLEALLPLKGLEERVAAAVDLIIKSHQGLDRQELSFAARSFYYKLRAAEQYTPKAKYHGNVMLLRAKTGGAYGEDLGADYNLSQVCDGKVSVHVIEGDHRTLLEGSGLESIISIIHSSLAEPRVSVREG
# Chain of 26S proteasome non-ATPase regulatory subunit 14 (O00487 whole entry): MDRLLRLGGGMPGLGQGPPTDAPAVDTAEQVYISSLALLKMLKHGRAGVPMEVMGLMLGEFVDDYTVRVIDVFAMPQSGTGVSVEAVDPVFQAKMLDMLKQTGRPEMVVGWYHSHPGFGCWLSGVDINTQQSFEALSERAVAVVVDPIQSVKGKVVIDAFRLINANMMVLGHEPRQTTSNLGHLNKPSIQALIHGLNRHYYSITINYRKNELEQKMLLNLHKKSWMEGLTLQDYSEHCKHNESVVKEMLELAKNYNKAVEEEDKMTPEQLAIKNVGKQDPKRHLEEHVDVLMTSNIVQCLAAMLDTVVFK
# Chain of Cytochrome P450 2D6 (P10635 whole entry, the tested form may be a part): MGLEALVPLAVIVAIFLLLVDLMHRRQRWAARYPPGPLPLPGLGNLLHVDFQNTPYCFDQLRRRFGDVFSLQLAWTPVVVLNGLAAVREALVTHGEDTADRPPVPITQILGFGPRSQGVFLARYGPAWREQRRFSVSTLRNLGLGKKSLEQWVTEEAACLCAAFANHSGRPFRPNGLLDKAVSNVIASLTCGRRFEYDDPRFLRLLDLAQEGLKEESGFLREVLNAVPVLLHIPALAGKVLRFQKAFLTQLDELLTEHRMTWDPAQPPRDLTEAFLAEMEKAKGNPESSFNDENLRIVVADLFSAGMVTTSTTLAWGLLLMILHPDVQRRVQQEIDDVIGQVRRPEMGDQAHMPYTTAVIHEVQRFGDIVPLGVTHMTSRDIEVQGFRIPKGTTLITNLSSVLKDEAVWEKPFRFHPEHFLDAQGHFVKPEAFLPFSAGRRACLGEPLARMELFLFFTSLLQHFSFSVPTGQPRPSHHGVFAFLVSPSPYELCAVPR
# Chain of Intestinal-type alkaline phosphatase (Mus musculus, UniProt P24822) (P24822 whole entry): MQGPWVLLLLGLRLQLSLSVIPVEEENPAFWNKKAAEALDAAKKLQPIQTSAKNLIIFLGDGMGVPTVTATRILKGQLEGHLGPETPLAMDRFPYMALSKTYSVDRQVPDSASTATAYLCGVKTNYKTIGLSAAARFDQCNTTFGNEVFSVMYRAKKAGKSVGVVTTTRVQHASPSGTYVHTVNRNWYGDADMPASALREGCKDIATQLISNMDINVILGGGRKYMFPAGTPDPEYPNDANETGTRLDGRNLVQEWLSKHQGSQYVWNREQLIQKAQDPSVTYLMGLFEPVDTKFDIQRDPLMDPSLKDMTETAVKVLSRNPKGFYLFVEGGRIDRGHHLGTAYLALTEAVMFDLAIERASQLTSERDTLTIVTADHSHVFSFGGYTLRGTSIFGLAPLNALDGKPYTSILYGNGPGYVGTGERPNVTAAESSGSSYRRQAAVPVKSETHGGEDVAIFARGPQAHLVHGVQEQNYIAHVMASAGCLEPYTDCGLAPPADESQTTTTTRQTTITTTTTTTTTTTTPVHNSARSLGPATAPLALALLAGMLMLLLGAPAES
# Chain of Lysine-specific demethylase 4C (Q9H3R0 whole entry): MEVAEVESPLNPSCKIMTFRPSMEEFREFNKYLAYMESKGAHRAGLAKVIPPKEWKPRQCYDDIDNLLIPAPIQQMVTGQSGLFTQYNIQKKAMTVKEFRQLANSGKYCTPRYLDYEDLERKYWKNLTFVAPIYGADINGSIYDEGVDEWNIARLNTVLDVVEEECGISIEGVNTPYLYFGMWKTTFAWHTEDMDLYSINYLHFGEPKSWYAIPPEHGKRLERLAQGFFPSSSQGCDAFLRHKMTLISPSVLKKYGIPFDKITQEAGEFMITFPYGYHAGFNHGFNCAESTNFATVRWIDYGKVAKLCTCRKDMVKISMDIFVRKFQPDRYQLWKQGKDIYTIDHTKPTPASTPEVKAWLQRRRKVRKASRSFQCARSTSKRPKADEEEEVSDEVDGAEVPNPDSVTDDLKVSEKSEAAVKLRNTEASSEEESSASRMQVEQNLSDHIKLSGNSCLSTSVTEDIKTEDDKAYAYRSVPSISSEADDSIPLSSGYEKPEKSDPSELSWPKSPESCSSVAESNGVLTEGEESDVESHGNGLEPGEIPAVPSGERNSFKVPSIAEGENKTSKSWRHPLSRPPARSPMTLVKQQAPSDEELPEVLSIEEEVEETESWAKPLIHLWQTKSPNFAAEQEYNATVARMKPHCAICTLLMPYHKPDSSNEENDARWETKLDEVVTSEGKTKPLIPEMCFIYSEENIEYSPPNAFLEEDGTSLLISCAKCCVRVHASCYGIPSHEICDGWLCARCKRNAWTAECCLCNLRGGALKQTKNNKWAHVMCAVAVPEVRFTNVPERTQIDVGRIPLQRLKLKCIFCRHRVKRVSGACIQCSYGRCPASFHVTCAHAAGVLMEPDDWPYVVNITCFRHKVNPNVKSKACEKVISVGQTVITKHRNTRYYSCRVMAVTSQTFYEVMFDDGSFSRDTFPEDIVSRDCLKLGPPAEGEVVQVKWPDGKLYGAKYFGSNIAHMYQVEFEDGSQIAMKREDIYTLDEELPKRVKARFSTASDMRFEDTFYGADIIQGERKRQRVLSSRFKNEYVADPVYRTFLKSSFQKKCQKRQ
# Chain of Phospholipase A2 (P04054 whole entry): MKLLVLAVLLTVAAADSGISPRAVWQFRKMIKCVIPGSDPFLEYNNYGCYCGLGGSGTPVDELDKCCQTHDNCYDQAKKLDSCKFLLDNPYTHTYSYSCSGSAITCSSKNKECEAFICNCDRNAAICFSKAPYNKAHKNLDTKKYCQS
structure (smiles),measurement,setting,value
O=C(NNC(=O)c1cc2ccccc2cc1O)Nc1ccc(Br)cc1,IC50,Exodeoxyribonuclease V,> 119 µM (inactive)
same,IC50,[1],> 119 µM (inactive)
FC(F)(F)c1ccccc1N=C(S)NN=C1CCCCCC1,EC50,[2],54 µM (active)
same,EC50,[3],> 38 µM (not active)
same,AC50,[4],6.8 µM (active)
COc1ccc2cc3c(N)nn(C(=O)c4ccccc4Cl)c3nc2c1,EC50,[5],< 0.1 µM (active)
same,EC50,[6],< 0.1 µM (active)
same,AC50,[7],47.8 µM (active)
same,EC50,[8],> 12 µM (not active)
same,EC50,[9],9.14 µM (active)
same,EC50,[10],1.43 µM (active)
same,EC50,cells,0.736 µM (active)
CC(C(=O)Nc1ccc(C(=O)O)c(O)c1)N1C(=O)/C(=C\c2ccco2)SC1=S (stereo unspecified),EC50,[11],50.8 µM (active)
same,IC50,Phospholipase A2,26.6 µM (inactive)
same,IC50,Cysteine protease ATG4B,11 µM (active)
same,IC50,Large T antigen,47.9 µM (active)
same,EC50,[12],62.2 µM (active)
same,AC50,ORF 73,66.3 µM (active)
same,IC50,Genome polyprotein,79.4 µM (active)
same,IC50,[13],0.968 µM (active)
same,EC50,[14],51.2 µM (active)
same,CC50,Vero,> 40 µM (active)
same,IC50,[15],14.6 µM (active)
same,IC50,Prothrombin,98.5 µM (active)
Cc1c(C(=O)Nc2ccc3c(c2)OCCO3)sc2ncnc(N3CCCCC3C)c12 (stereo unspecified),IC50,[16],4.95 µM (active)
CCCCn1c(SCCCc2ccccc2)nc2c1c(=O)[nH]c(=O)n2C,IC50,Tumor necrosis factor,17.7 µM (active)
same,IC50,[17],> 20 µM (inactive)
same,IC50,HEK293 [18],> 20 µM (inactive)
same,IC50,[19],11.9 µM (active)
CCOc1ccc(-c2nc(CSCC(=O)NCCOC)c(C)o2)cc1,IC50,HEK293 [20],> 80 µM (inactive)
same,IC50,HEK293 [21],> 80 µM (inactive)
same,IC50,Jurkat,> 80 µM (inactive)
COc1ccc(NC(=O)N(C)C[C@@H]2Oc3c(NC(=O)Nc4cccc5ccccc45)cccc3C(=O)N([C@@H](C)CO)C[C@H]2C)cc1,AC50,[22],43.7 µM (active)
CC(C)(C)c1ccc(OC(=O)Nc2ccc(O)c(C(=O)O)c2)cc1,AC50,Cytochrome P450 2D6,inconclusive
same,IC50,Fatty acid synthase [23],11.7 µM (active)
same,IC50,Fatty acid synthase [24],9.66 µM (active)
